Experiments:
Assay type in all cases: in vivo
[1] = tested on: Agrostis tenuis; assay: Herbicidal early post-emergence action (96-well microtiter plates), AGSTE; details: 1900 g/ha, scored 9 to 12 days after treatment, 100% = plants have died, 0% = like untreated control plants
In short: (§1)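 Weed seeds grown in quartz sand in 96-well microtiter plates in a climate chamber and treated at the cotyledon stage, 5 to 7 days after sowing, with EC formulations at 2200 L/ha water and a rate equivalent to 1900 g/ha. Visual scoring after 9 to 12 days against untreated controls (0% = control, 100% = dead).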

[2] = tested on: Matricaria inodora; assay: Herbicidal post-emergence action (greenhouse pots), MATIN; details: 1280 g/ha, visual rating about 3 weeks after treatment vs untreated controls
Source text: (§2) In the examples and tables below, the following abbreviations are used: • Undesired Plants/Weeds: • ABUTH: Abutilon theophrasti • AGSTE: Agrostis tenuis • AMARE Amaranthus retroflexus • ECHCG: Echinochloa crus-galli • LOLRI: Lolium rigidum • MATIN: Matricaria inodora • POAAN: Poa annua • SETVI: Setaria viridis • STEME: Stellaria media A. Herbicidal Early Post-Emergence Action Seeds of mono- and dicotyledonous weed plants were placed in plastic pots in sandy loam soil (doubly sown with in each case one species of mono- or dicotyledonous weed plants per pot), covered with soil and cultivated in a greenhouse under controlled growth conditions. 2 to 3 weeks after sowing, the test plants were treated at the one-leaf stage. The compounds of the invention, formulated in the form of wettable powders (WP) or as emulsion concentrates (EC), were applied onto the green parts of the plants as aqueous suspension or emulsion with addition of 0.5% additive at a water application rate of 600 liters per hectare (converted). After the test plants had been kept in the greenhouse under optimum growth conditions for about 3 weeks, the activity of the preparations was rated visually in comparison to untreated controls. For example, 100% activity=the plants have died, 0% activity=like untreated control plants. Tables B1-B8 below show the effects of selected compounds of the general formula (I) according to Table 1 above on various harmful plants and an application rate corresponding to 1280 g/ha, which were obtained by the experimental procedure mentioned above.

[3] = tested on: Amaranthus retroflexus; assay: Herbicidal pre-emergence action (greenhouse pots), AMARE; details: 1280 g/ha, visual scoring after about 3 weeks vs untreated controls
In short: (§3)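 Weed seeds sown in sandy loam in pots, covered, then soil surface sprayed with WP or EC formulations plus 0.5% additive at 600 L/ha water (converted), 1280 g/ha. Kept in greenhouse ~3 weeks; injury scored visually as % versus untreated controls (100% = dead).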

[4] = tested on: Poa annua; assay: Herbicidal early post-emergence action (96-well microtiter plates), POAAN; details: 1900 g/ha, scored 9 to 12 days after treatment, 100% = plants have died, 0% = like untreated control plants
In short: as §1

[5] = tested on: Matricaria inodora; assay: Herbicidal pre-emergence action (greenhouse pots), MATIN; details: 1280 g/ha, visual scoring after about 3 weeks vs untreated controls
In short: as §3

[6] = tested on: Stellaria media; assay: Herbicidal pre-emergence action (greenhouse pots), STEME; details: 1280 g/ha, visual scoring after about 3 weeks vs untreated controls
In short: as §3

[7] = tested on: Stellaria media; assay: Herbicidal post-emergence action (greenhouse pots), STEME; details: 1280 g/ha, visual rating about 3 weeks after treatment vs untreated controls
In short: (§4)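 Weeds were sown in sandy loam and treated at the one-leaf stage, 2–3 weeks after sowing. WP or EC formulations were applied with 0.5% additive at 600 L/ha water, at a rate of 1280 g/ha. Activity was rated visually after about 3 weeks against untreated controls (0% = untreated, 100% = dead).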

[8] = tested on: Setaria viridis; assay: Herbicidal pre-emergence action (greenhouse pots), SETVI; details: 1280 g/ha, visual scoring after about 3 weeks vs untreated controls
In short: as §3

[9] = tested on: Echinochloa crus-galli; assay: Herbicidal post-emergence action (greenhouse pots), ECHCG; details: 1280 g/ha, rated after about 3 weeks, 100% = plants have died, 0% = like untreated control plants
Source text: as §2

[10] = tested on: Abutilon theophrasti; assay: Herbicidal post-emergence action (greenhouse pots), ABUTH; details: 1280 g/ha, visual rating about 3 weeks after treatment vs untreated controls
In short: as §4

[11] = tested on: Poa annua; assay: Herbicidal pre-emergence action (greenhouse pots), POAAN; details: 1280 g/ha, visual scoring after about 3 weeks vs untreated controls
In short: as §3

[12] = tested on: Lolium rigidum; assay: Herbicidal post-emergence action (greenhouse pots), LOLRI; details: 1280 g/ha, rated after about 3 weeks, 100% = plants have died, 0% = like untreated control plants
Source text: as §2

[13] = tested on: Poa annua; assay: Herbicidal post-emergence action (greenhouse pots), POAAN; details: 1280 g/ha, visual rating about 3 weeks after treatment vs untreated controls
Source text: as §2

[14] = tested on: Setaria viridis; assay: Herbicidal post-emergence action (greenhouse pots), SETVI; details: 1280 g/ha, rated after about 3 weeks, 100% = plants have died, 0% = like untreated control plants
Source text: as §2

[15] = tested on: Echinochloa crus-galli; assay: Herbicidal pre-emergence action (greenhouse pots), ECHCG; details: 1280 g/ha, visual scoring after about 3 weeks vs untreated controls
In short: as §3

[16] = tested on: Abutilon theophrasti; assay: Herbicidal pre-emergence action (greenhouse pots), ABUTH; details: 1280 g/ha, visual scoring after about 3 weeks vs untreated controls
Source text: (§5) In the examples and tables below, the following abbreviations are used: • Undesired Plants/Weeds: • ABUTH: Abutilon theophrasti • AGSTE: Agrostis tenuis • AMARE Amaranthus retroflexus • ECHCG: Echinochloa crus-galli • LOLRI: Lolium rigidum • MATIN: Matricaria inodora • POAAN: Poa annua • SETVI: Setaria viridis • STEME: Stellaria media A. Herbicidal Early Post-Emergence Action Seeds of mono- and dicotyledonous weed plants were placed in plastic pots in sandy loam soil (doubly sown with one species each of mono- or dicotyledonous weed plants per pot) and covered with soil. The compounds of the invention, formulated in the form of wettable powders (WP) or as emulsion concentrates (EC), were then applied onto the surface of the covering soil as aqueous suspension or emulsion with addition of 0.5% additive at a water application rate of 600 liters per hectare (converted). After the treatment, the pots were placed in a greenhouse and kept under good growth conditions for the test plants. After about 3 weeks, the effect of the preparations was scored visually in comparison with untreated controls as percentages. For example, 100% activity=the plants have died, 0% activity=like untreated control plants. Tables C1-C8 below show the effects of selected compounds of the general formula (I) according to Table 1 above on various harmful plants and an application rate corresponding to 1280 g/ha, which were obtained by the experimental procedure mentioned above.

[17] = tested on: Lolium rigidum; assay: Herbicidal pre-emergence action (greenhouse pots), LOLRI; details: 1280 g/ha, visual scoring after about 3 weeks vs untreated controls
Source text: as §5

[18] = tested on: Amaranthus retroflexus; assay: Herbicidal post-emergence action (greenhouse pots), AMARE; details: 1280 g/ha, visual rating about 3 weeks after treatment vs untreated controls
In short: as §4

N#Cc1cccc(Nc2ncc([N+](=O)[O-])cn2)c1Oc1ccc(F)cc1 [Example 1-306]
100%: AGSTE (herbicidal activity, scored visually in comparison to untreated controls) [1] | herbicidal activity MATIN [2] | herbicidal activity AMARE [3] | herbicidal activity STEME [6] | herbicidal activity STEME [7] | herbicidal activity SETVI [8]
90%: herbicidal activity MATIN [5]
80%: POAAN (herbicidal activity, scored visually in comparison to untreated controls) [4]

Fc1ccc(Oc2c(F)cccc2Nc2ncc(Cl)cn2)cc1 [Example 1-204]
100%: ECHCG (herbicidal activity, rated visually in comparison to untreated controls) [9] | herbicidal activity ABUTH [10] | herbicidal activity POAAN [11] | AGSTE (herbicidal activity, scored visually in comparison to untreated controls) [1] | herbicidal activity AMARE [3] | POAAN (herbicidal activity, scored visually in comparison to untreated controls) [4] | herbicidal activity POAAN [13] | SETVI (herbicidal activity, rated visually in comparison to untreated controls) [14] | herbicidal activity STEME [7] | herbicidal activity SETVI [8] | herbicidal activity ECHCG [15]
90%: LOLRI (herbicidal activity, rated visually in comparison to untreated controls) [12] | herbicidal activity MATIN [5]

CCc1cnc(Nc2cccc(C#N)c2Oc2ccc(F)cc2)nc1 [Example 1-310]
80%: AGSTE (herbicidal activity, scored visually in comparison to untreated controls) [1]
100%: herbicidal activity MATIN [2]
90%: herbicidal activity STEME [7]

N#Cc1cccc(Nc2ncc(Cl)cc2F)c1Oc1ccc(F)cc1 [Example 1-139]
100%: AGSTE (herbicidal activity, scored visually in comparison to untreated controls) [1] | herbicidal activity MATIN [2] | herbicidal activity POAAN [13]
80%: POAAN (herbicidal activity, scored visually in comparison to untreated controls) [4]

N#Cc1cccc(Nc2ncc(F)cn2)c1Oc1ccc(Cl)nc1 [Example 3-54]
100%: herbicidal activity ABUTH [16] | herbicidal activity ABUTH [10] | herbicidal activity POAAN [11] | AGSTE (herbicidal activity, scored visually in comparison to untreated controls) [1] | herbicidal activity AMARE [3] | herbicidal activity LOLRI [17] | herbicidal activity AMARE [18] | POAAN (herbicidal activity, scored visually in comparison to untreated controls) [4] | herbicidal activity POAAN [13] | herbicidal activity MATIN [5] | herbicidal activity STEME [6] | herbicidal activity SETVI [8] | herbicidal activity ECHCG [15]
90%: SETVI (herbicidal activity, rated visually in comparison to untreated controls) [14] | herbicidal activity STEME [7]

Clc1cnc(Nc2ccccc2Oc2ccccc2)nc1 [Example 1-336]
100%: AGSTE (herbicidal activity, scored visually in comparison to untreated controls) [1] | herbicidal activity MATIN [2] | POAAN (herbicidal activity, scored visually in comparison to untreated controls) [4] | herbicidal activity STEME [6] | herbicidal activity STEME [7]

Fc1ccc(Oc2c(Cl)cccc2Nc2ncc(Cl)cn2)cc1 [Example 1-235]
90%: herbicidal activity ECHCG [15]
80%: herbicidal activity MATIN [2]
100%: ECHCG (herbicidal activity, rated visually in comparison to untreated controls) [9] | herbicidal activity ABUTH [10] | herbicidal activity POAAN [11] | AGSTE (herbicidal activity, scored visually in comparison to untreated controls) [1] | herbicidal activity AMARE [3] | herbicidal activity AMARE [18] | POAAN (herbicidal activity, scored visually in comparison to untreated controls) [4] | herbicidal activity POAAN [13] | herbicidal activity MATIN [5] | herbicidal activity STEME [6] | herbicidal activity STEME [7] | herbicidal activity SETVI [8]

N#Cc1cccc(Nc2ncccn2)c1Oc1ccc(F)cc1 [Example 1-248]
100%: herbicidal activity ABUTH [16] | ECHCG (herbicidal activity, rated visually in comparison to untreated controls) [9] | herbicidal activity ABUTH [10] | herbicidal activity POAAN [11] | AGSTE (herbicidal activity, scored visually in comparison to untreated controls) [1] | herbicidal activity AMARE [3] | herbicidal activity LOLRI [17] | herbicidal activity AMARE [18] | POAAN (herbicidal activity, scored visually in comparison to untreated controls) [4] | herbicidal activity POAAN [13] | herbicidal activity MATIN [5] | herbicidal activity STEME [6] | herbicidal activity STEME [7] | herbicidal activity SETVI [8] | herbicidal activity ECHCG [15]

N#Cc1cccc(Nc2ncc(F)cn2)c1Oc1ccc(Cl)cc1 [Example 1-269]
80%: AGSTE (herbicidal activity, scored visually in comparison to untreated controls) [1]
100%: herbicidal activity POAAN [11] | herbicidal activity AMARE [3] | herbicidal activity AMARE [18] | POAAN (herbicidal activity, scored visually in comparison to untreated controls) [4] | herbicidal activity MATIN [5] | herbicidal activity STEME [6] | herbicidal activity STEME [7] | herbicidal activity SETVI [8]
90%: herbicidal activity ABUTH [16] | ECHCG (herbicidal activity, rated visually in comparison to untreated controls) [9] | herbicidal activity ABUTH [10] | herbicidal activity LOLRI [17] | herbicidal activity POAAN [13] | SETVI (herbicidal activity, rated visually in comparison to untreated controls) [14] | herbicidal activity ECHCG [15]

N#Cc1cccc(Nc2ncc(F)cn2)c1Oc1ccc(F)c(F)c1F [Example 1-374]
100%: ECHCG (herbicidal activity, rated visually in comparison to untreated controls) [9] | herbicidal activity ABUTH [10] | herbicidal activity POAAN [11] | AGSTE (herbicidal activity, scored visually in comparison to untreated controls) [1] | herbicidal activity MATIN [2] | herbicidal activity AMARE [3] | herbicidal activity AMARE [18] | POAAN (herbicidal activity, scored visually in comparison to untreated controls) [4] | herbicidal activity POAAN [13] | herbicidal activity MATIN [5] | herbicidal activity STEME [6] | herbicidal activity STEME [7] | herbicidal activity SETVI [8] | herbicidal activity ECHCG [15]

N#Cc1cccc(Nc2ncc(F)cn2)c1Oc1cc(F)c(F)cc1F [Example 1-375]
90%: herbicidal activity ABUTH [10] | herbicidal activity LOLRI [17]
100%: herbicidal activity ABUTH [16] | herbicidal activity POAAN [11] | AGSTE (herbicidal activity, scored visually in comparison to untreated controls) [1] | herbicidal activity AMARE [3] | herbicidal activity AMARE [18] | POAAN (herbicidal activity, scored visually in comparison to untreated controls) [4] | herbicidal activity POAAN [13] | herbicidal activity MATIN [5] | herbicidal activity STEME [6] | herbicidal activity STEME [7] | herbicidal activity SETVI [8] | herbicidal activity ECHCG [15]
